Here are results for 1 compound from patent US20190151418A1, “COMBINATION OF CALCIUM-PHOSPHATE-CONTAINING POROUS COMPOSITE AND PTH” (TOYOBO CO., LTD., priority 2016, published 2019).

The structures appear in SMILES notation.

In the assay the test system is standardized full-thickness bone defect (diameter: about 9 mm) in the calvarium. Briefly: Test Example 1: rat calvarium bone defect, OCP/Col or β-TCP/Col implant + teriparatide subcutaneous injection. Type of assay: in vivo, Male Wistar rats. From the text: Male Wistar rats (12 weeks old) were each intraperitoneally anesthetized, and a skin incision and a periosteal incision were made in the calvarium part to expose the calvarium. A standardized full-thickness bone defect (diameter: about 9 mm), for which spontaneous recovery could not be expected, was created. Then, one disc-shaped OCP/Col produced in Production Example 2 or one disc-shaped β-TCP/Col produced in Production Example 3 was implanted therein. As the control, rats in which only a bone defect was created, and no sample was implanted (untreated group) were prepared. After the sample was implanted, the periosteum and skin were sutured, and the surgery was completed. […] In the rats of the teriparatide subcutaneous injection group, 10 μg/kg of the teriparatide prepared in Production Example 5 was subcutaneously injected immediately after surgery and every day thereafter. Subcutaneous injection was performed in such a manner that the thawed teriparatide solution was sucked by a 1-mL syringe (27G injection needle), the back skin was sterilized with a dilute Hibitane solution, and then a considerable amount of teriparatide solution was injected subcutaneously in the back. The observation period after surgery was 8 weeks for each group, and 5 rats were used in each period.
Four weeks and eight weeks after surgery, tomography was carried out on the rats in the living state using an X-ray CT scanner for experimental animals (Latheta LCT-200, produced by Hitachi Aloka Medical, Ltd.) at a low X-ray tube voltage, and the state of new bone formation in the bone defect site was carefully examined. Similarly, after CT photography 8 weeks after surgery, the rats were euthanized under anesthesia with an excess amount of pentobarbital. The calvarium and surrounding tissue were taken, and immersed and fixed in 0.1 M phosphate-buffered 4% paraformaldehyde (pH 7.4). The extracted samples were photographed (20 kV, 5 mA) with a soft X-ray camera (CMBW-2, produced by Softex Co., Ltd.), and then decalcified with 10% EDTA to prepare paraffin samples. Then, tissue sections (thickness: 6 μm) cut in the frontal plane were prepared, and a histological search was performed by hematoxylin-eosin staining. Further, using the multiple tissue sections corresponding to the center of the defect of each sample, the ratio of new bone (n-Bone %) in the created defect was examined by histological quantification. Variance analysis, etc., were conducted using the average value and standard deviation of n-Bone % in each group, and a significance test was conducted. The significance level was set at 5%.

[1] abbreviates: 8 weeks after surgery, hematoxylin-eosin, PTH(+) = teriparatide 10 μg/kg s.c. every day, PTH(−) = none.

Consider `CC[C@H](C)[C@H](NC(=O)[C@H](CCC(=O)O)NC(=O)[C@H](CO)NC(=O)[C@@H](NC(=O)[C@@H](N)CO)C(C)C)C(=O)N[C@@H](CCC(N)=O)C(=O)N[C@@H](CC(C)C)C(=O)N[C@@H](CCSC)C(=O)N[C@@H](Cc1cnc[nH]1)C(=O)N[C@@H](CC(N)=O)C(=O)N[C@@H](CC(C)C)C(=O)NCC(=O)N[C@@H](CCCCN)C(=O)N[C@@H](Cc1cnc[nH]1)C(=O)N[C@@H](CC(C)C)C(=O)N[C@@H](CC(N)=O)C(=O)N[C@@H](CO)C(=O)N[C@@H](CCSC)C(=O)N[C@@H](CCC(=O)O)C(=O)N[C@@H](CCCN=C(N)N)C(=O)N[C@H](C(=O)N[C@@H](CCC(=O)O)C(=O)N[C@@H](Cc1c[nH]c2ccccc12)C(=O)N[C@@H](CC(C)C)C(=O)N[C@@H](CCCN=C(N)N)C(=O)N[C@@H](CCCCN)C(=O)N[C@@H](CCCCN)C(=O)N[C@@H](CC(C)C)C(=O)N[C@@H](CCC(N)=O)C(=O)N[C@@H](CC(=O)O)C(=O)N[C@H](C(=O)N[C@@H](Cc1cnc[nH]1)C(=O)N[C@@H](CC(N)=O)C(=O)N[C@@H](Cc1ccccc1)C(=O)O)C(C)C)C(C)C` [teriparatide], for which the “X-ray photographs of isolated bone defect sites (FIG. 1)” value (8 weeks after surgery, PTH(+) = teriparatide 10 μg/kg s.c. every day) is “radiopaque images in the defects were equally scarce”. Under setting [1], the “stained pathological specimens, high-magnification images (FIG. 4)” value is reported as “thin new bone extended from the defect margins”; the “stained pathological specimens, low-magnification (×1.25) images (FIG. 3)” value was “thin bone tissue extending from the defect margins (▾) and connective tissue surrounding the bone tissue”. The “ratio of new bone (n-Bone %) in the defect” value (8 weeks after surgery, histological quantification (FIG. 5), PTH(+) = teriparatide 10 μg/kg subcutaneously every day, PTH(−) = no injection, average ± standard deviation) is given as 31.1±10.2%. Also, under “PTH(+) = teriparatide 10 μg/kg s.c. every day”, the “X-ray photographs (cross sections) of calvarium shot with the rats alive (FIG. 2)” value was “radiopaque images extending from the defect margins (∇) were observed; however, their thickness was less than that of the existing bone”. Moreover, the “new bone formation (conclusion from FIGS. 1 to 5)” value (teriparatide 10 μg/kg s.c. every day, 8 weeks) was “new bone formation was not observed”.
